Test results from ChEMBL document CHEMBL1201862, “PubChem BioAssay data set” (2004).
Where a name gives a salt, the structure may show the parent alone. Activity calls are given as the source filed them.

Key:
[1] = molecular target: E3 ubiquitin-protein ligase Mdm2 (Homo sapiens, UniProt Q00987); assay: enhancers of MDM2-luciferase reporter signal, concentration-effect titration, project on inhibitors of MDM2 ubiquitin ligase, cellular assay, luminescent readout, 384-well plate format (AID 1394); assay type: functional;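 further: MDM2 E3 inhibitors raise luminescence so EC50 is for signal enhancement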
Sequence of E3 ubiquitin-protein ligase Mdm2 (Q00987 whole entry): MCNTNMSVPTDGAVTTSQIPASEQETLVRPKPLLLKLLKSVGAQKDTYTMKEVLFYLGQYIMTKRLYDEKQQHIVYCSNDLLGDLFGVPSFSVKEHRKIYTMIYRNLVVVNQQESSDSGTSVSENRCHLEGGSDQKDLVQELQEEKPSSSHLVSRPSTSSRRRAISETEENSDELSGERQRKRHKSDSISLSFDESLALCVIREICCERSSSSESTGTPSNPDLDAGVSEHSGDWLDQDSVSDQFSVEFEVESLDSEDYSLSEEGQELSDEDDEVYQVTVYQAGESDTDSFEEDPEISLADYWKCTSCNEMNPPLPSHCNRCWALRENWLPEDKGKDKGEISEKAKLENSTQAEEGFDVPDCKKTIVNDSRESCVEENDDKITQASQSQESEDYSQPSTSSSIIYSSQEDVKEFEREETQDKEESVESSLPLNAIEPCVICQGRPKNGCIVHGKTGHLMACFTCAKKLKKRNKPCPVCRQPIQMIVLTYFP

Vero = assay: West Nile virus antiviral activity, cell-based, CPE readout (AID 1621); assay type: functional; settings: Chlorocebus sabaeus
[2] = Luminescence Cell-Based Dose Response to Identify Activators of 5'UTR Stem-Loop Driven Prion Protein mRNA Translation in H4-C Neuroglioblastoma Cells. [Related pubchem assays: 1829 (Project Summary), 1814 (Primary HTS)]; assay type: functional
[3] = Luminescence Cell-Based Dose Response to Identify Activators of Luciferase Translation or Activity in H4-C Neuroglioblastoma Cells. [Related pubchem assays: 1829 (Project Summary), 1814 (Primary HTS)]; assay type: functional
[4] = molecular target: Potassium voltage-gated channel subfamily KQT member 2 (Rattus norvegicus, UniProt O88943, W236L); assay: KCNQ2 channel potentiators, dose response, mechanism study for KCNQ2 potentiator project, cell-based, automated electrophysiology (AID 2603); assay type: functional
Sequence of Potassium voltage-gated channel subfamily KQT member 2 (O88943 whole entry W236L): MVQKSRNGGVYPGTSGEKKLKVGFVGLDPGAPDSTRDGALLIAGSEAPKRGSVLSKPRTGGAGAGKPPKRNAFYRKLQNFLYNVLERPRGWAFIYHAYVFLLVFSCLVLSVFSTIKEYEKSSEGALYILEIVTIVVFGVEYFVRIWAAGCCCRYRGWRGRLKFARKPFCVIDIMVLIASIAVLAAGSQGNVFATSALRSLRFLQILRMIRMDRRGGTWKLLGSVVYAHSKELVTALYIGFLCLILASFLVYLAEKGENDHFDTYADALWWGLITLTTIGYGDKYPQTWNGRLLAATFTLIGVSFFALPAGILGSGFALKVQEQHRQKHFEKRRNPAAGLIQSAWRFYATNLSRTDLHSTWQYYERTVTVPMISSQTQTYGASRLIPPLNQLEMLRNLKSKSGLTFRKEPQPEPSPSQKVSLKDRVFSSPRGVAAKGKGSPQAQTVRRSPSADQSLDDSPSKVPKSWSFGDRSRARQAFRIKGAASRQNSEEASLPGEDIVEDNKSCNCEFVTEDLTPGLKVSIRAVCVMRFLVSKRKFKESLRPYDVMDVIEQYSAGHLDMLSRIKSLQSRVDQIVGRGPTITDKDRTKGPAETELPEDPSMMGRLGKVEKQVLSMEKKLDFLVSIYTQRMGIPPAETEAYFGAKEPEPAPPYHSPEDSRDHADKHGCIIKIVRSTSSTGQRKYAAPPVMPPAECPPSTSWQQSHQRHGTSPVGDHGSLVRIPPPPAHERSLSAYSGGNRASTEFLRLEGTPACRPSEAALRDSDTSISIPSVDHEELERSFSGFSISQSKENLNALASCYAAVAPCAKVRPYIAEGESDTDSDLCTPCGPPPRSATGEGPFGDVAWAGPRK

[5] = Luminescence Cell-Based Dose Confirmation to Identify Activators of 5'UTR Stem-Loop Driven Alpha-Synuclein mRNA Translation in H4 Neuroglioblastoma Cells. [Related pubchem assays: 1829 (Project Summary), 1814 (Primary HTS)]; assay type: functional
[6] = Luminescence Cell-Based Dose Response HTS to Identify Activators of Luciferase Translation or Activity in H4 […] Cells. [Related pubchem assays: 1829 (Project Summary), 1814 (Primary HTS)]; assay type: functional
H4 = assay: Luminescence Cell-Based Dose Response HTS to Identify Activators of 5'UTR Stem-Loop Driven Prion Protein mRNA Translation in H4 Neuroglioblastoma Cells. [Related pubchem assays: 1829 (Project Summary), 1814 (Primary HTS)]; assay type: functional; settings: Homo sapiens
[7] = Plasmodium falciparum Dd2 Sybr green parasite growth Measured in Cell-Based and Microorganism Combination System Using Plate Reader - 2153-01_Inhibitor_Dose_DryPowder_Activity_Set10.; assay type: functional
[8] = molecular target: T1, Heat shock factor protein 1 (Mus musculus, UniProt P38532); assay: inhibition of MG132-induced HSE-luciferase signal, confirmation, cell-based, NIH3T3, luminescence, dose retest (AID 2382); assay type: functional;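 further: NIH3T3 fibroblasts with HSF1-driven luciferase reporter stressed by proteasome inhibitor MG132; luminescence from HSF1-driven luciferase expression after 8 hours of MG132 stress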
T1 sequence (P38532 whole entry): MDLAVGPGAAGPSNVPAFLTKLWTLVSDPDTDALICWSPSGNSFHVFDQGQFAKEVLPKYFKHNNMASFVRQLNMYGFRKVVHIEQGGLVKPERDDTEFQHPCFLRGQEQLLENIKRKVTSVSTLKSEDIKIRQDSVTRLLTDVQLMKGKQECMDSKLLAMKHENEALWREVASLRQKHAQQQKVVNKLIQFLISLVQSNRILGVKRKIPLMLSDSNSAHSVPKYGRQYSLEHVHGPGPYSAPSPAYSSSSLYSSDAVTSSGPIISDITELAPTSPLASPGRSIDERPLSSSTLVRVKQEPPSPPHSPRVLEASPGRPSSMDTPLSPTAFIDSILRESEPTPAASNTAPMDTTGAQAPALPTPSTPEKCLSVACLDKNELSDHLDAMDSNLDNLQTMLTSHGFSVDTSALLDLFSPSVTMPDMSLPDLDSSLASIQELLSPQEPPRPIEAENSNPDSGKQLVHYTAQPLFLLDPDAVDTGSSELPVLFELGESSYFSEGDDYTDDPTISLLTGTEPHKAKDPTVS

Vasopressin V1a receptor = Vasopressin V1a receptor (Homo sapiens, UniProt P37288); assay: Fluorescence-based cell-based high throughput dose response screening assay for agonists of the vasopressin 1 receptor (V1R).; assay type: functional
Sequence of Vasopressin V1a receptor (P37288 whole entry): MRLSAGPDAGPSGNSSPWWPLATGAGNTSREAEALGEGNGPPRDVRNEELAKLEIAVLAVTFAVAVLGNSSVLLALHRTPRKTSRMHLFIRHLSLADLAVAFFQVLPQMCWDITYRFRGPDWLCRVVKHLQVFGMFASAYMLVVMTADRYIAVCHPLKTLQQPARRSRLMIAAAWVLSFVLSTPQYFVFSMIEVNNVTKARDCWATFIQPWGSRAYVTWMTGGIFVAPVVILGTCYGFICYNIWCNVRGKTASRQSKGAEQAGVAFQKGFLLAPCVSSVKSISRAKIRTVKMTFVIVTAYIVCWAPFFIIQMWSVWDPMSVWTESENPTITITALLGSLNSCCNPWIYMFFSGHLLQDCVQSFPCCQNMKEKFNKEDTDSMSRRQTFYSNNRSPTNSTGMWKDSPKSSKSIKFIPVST

Oxytocin receptor = Oxytocin receptor (Homo sapiens, UniProt P30559); assay: Counterscreen for vasopressin 1 receptor (V1R) agonists: Fluorescence-based cell-based high throughput dose response assay for agonists of the Oxytocin Receptor (OXTR). [Related pubchem assays: 2435 (Primary screen (OXTR agonists in singlicate)), 434964 (Confirmation screen (V1R agonists in triplicate)), 434969 (Counterscreen (OXTR agonists in …; assay type: functional
Sequence of Oxytocin receptor (P30559 whole entry): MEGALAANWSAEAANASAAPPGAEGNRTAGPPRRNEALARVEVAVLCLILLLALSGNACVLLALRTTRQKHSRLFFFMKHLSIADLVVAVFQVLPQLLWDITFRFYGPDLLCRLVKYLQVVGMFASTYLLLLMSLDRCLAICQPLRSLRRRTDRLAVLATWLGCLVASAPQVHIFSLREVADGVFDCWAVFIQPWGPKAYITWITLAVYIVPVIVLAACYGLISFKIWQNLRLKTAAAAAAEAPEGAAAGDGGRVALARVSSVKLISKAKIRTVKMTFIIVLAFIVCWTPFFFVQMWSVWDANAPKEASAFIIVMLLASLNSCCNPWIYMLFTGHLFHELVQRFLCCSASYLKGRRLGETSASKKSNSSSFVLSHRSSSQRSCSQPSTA

[9] = Dose-response inhibition of insulin secretion in a rat insulinoma line at 5 mM glucose (AID 1117331); assay type: functional, cell-based; settings: INS-1E
[10] = HeLa 2N DNA content increase, dose response, cell-based, IC50 (AID 1117349); assay type: functional
cells = assay type: functional, cell-based; settings: INS-1E
[11] = HeLa 4N DNA content increase, dose response, cell-based, IC50 (AID 1117351); assay type: functional
[12] = RKO cell viability reduction, dose response, CellTiter-Glo luminescence (AID 1117322); assay type: functional
P388/ADR = assay: cells; assay type: functional; settings: Mus musculus
SN12K1 = assay: cells; assay type: functional; settings: Homo sapiens
[13] = cytotoxicity in HEK-293T cells, dose response, cytotoxicity control for TCR NF-kB inhibitor project, luminescence, T-cell screen hits (AID 489026); assay type: functional, cell-based;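 further: cells exposed to compound about 14 hours before the viability readout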
[14] = Concentration-dependent survival of SW480 colon cancer line, luminescence detection with CellTiter-Glo, half-maximal inhibitory concentration (AID 1117338); assay type: functional
[15] = molecular target: T2, Rac GTPase-activating protein 1 (Homo sapiens, UniProt Q9H0H5); assay: MgcRacGAP GTPase-activating activity inhibitors, confirmation, biochemical, ADP Hunter fluorescence, primary and confirmatory (AID 624330); assay type: functional
T2 sequence (Q9H0H5 whole entry): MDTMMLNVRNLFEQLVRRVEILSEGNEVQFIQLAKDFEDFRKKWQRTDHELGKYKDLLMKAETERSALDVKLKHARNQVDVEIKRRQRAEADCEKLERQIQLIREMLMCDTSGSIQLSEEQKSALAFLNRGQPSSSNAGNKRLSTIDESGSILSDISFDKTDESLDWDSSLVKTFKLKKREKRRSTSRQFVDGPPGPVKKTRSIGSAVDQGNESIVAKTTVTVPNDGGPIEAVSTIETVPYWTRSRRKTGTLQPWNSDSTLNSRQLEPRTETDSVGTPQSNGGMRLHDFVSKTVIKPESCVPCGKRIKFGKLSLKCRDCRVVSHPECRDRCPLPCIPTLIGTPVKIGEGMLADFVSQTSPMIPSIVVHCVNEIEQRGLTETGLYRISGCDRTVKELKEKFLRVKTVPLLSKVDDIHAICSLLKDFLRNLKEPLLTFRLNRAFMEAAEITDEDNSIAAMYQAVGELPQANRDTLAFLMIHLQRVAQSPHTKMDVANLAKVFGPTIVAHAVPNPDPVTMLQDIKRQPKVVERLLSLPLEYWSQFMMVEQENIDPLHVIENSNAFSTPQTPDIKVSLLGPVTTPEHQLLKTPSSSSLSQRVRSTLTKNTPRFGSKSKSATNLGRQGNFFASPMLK

[16] = CellTiter-Glo luminescent dose response of DLD-1 viability loss (AID 1117352); assay type: functional
[17] = molecular target: Glutathione-S-transferase (Schistosoma japonicum, UniProt Q26513); assay: biotin-GST/anti-GST TR-FRET signal inhibitors, dose response, artefact control for Vif-APOBEC3G degradation inhibitor project, biochemical (AID 1117362); assay type: functional
Sequence of Glutathione-S-transferase (Q26513 whole entry): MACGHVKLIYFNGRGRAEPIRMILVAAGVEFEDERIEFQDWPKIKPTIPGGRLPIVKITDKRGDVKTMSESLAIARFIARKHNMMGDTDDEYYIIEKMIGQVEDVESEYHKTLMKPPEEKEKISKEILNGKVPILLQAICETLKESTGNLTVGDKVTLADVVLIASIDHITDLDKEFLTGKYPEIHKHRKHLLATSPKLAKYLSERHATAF

[18] = control 3'UTR Renilla luciferase suppression, dose response, counter-screen for Shn3 inhibitor project, cell-based, Clone20-Shn3RL, cherry-picked (AID 624133); assay type: functional
P388 = assay: cells; assay type: functional; settings: Mus musculus
[19] = cytotoxicity toward HCT116 cells – cell-based, CellTiter-Glo luminescence, IC50, dose response (AID 1117332); assay type: functional; settings: HCT-116
[20] = human group III sPLA2 inhibitors, dose response, biochemical, QFRET, IC50 (AID 743457);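 further: green fluorescence rise as the enzyme cleaves BODIPY PC-A2 in liposomes; potency for inhibition of the enzyme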
[21] = Shn3 3'UTR reporter inhibitors, dose response, cell-based, Clone20 osteoblasts, firefly luciferase, cherry-picked (AID 624132); assay type: functional;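 further: firefly luciferase luminescence from reporter carrying the Shn3 3'UTR in osteoblasts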
[22] = HCT116 cell viability decrease, GSK3B pretreatment – CellTiter-Glo, IC50, dose response (AID 1117339); assay type: functional; settings: HCT-116
[23] = molecular target: T3, DNA repair protein RAD52 homolog (Homo sapiens, UniProt P43351); assay type: functional, biochemical
T3 sequence (P43351 whole entry): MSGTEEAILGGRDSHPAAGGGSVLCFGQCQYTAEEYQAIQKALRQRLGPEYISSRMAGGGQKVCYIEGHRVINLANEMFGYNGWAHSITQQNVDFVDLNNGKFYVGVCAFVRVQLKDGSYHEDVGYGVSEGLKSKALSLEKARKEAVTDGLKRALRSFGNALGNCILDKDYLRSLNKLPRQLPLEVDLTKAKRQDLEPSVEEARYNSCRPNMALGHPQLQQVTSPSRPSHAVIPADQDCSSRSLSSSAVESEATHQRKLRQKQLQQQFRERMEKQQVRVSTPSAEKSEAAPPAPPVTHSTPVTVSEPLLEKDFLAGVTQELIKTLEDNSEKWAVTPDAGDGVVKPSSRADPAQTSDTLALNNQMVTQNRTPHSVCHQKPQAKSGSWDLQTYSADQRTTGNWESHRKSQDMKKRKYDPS

[24] = THP-1 cell cytotoxicity, dose response, cytotoxicity control for Vif-APOBEC3G degradation inhibitor project, THP-1 cells (AID 1117359); assay type: functional; settings: Human immunodeficiency virus 1, THP-1
Nonstructural protein 1 = Nonstructural protein 1 (Influenza A virus, UniProt Q194T2); assay type: functional, Influenza A virus (A/California/07/2009(H1N1))
Sequence of Nonstructural protein 1 (Q194T2 whole entry): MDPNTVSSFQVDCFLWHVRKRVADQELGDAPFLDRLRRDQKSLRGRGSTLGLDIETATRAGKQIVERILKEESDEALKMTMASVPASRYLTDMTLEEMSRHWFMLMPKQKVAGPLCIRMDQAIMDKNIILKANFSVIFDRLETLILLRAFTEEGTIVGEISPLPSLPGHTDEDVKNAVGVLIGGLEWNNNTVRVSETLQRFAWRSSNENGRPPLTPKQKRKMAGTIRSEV

Paired box protein Pax-8 = Paired box protein Pax-8 (Homo sapiens, UniProt Q06710); assay: inhibitors of PAX8-driven TPO luciferase reporter, dose response, RMG-I cells, cherry-pick (AID 687027); assay type: functional, cell-based;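 further: luciferase reporter driven by Pax8 target thyroperoxidase promoter measured by SteadyGlo luminescence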
Sequence of Paired box protein Pax-8 (Q06710 whole entry): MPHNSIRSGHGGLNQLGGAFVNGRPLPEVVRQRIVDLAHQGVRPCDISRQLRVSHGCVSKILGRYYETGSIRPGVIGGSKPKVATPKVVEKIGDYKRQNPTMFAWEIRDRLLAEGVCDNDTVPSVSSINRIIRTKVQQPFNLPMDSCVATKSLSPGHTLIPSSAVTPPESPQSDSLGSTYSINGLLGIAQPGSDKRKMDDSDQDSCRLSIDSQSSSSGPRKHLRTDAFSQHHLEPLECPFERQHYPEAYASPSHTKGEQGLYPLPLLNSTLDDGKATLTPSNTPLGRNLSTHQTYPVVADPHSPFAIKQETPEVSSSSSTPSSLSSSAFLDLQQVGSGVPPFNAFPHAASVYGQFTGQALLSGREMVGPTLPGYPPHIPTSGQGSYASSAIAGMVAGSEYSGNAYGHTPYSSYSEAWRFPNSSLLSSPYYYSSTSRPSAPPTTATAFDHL

[25] = HepG2 cell cytotoxicity, dose response, cytotoxicity control for Shn3 inhibitor project, CellTiter-Glo, cherry-picked (AID 624134); assay type: functional, cell-based
[26] = molecular target: Dual specificity tyrosine-phosphorylation-regulated kinase 1A (Rattus norvegicus, UniProt Q63470); assay type: biochemical, Homo sapiens
[27] = SNU-C1 cell viability reduction, dose response, CellTiter-Glo luminescence (AID 1117323); assay type: functional, cell-based

SMILES: O=C(CSc1nnc(-c2cccnc2)n1C1CCCCC1)NC1CCCCC1
- EC50 [1]: 40 nM (not active)

SMILES: Cc1ccc2nc(O)c(CN(CCCN(C)C)C(=O)Nc3ccc(Cl)cc3)cc2c1
- IC50 (Vero): 17800 nM (active)

SMILES: Cc1ccc(NC(=O)NCC2CC2(Cl)Cl)cc1 (stereo not drawn)
- EC50 [2]: > 12000 nM (not active)
- EC50 [3]: 399 nM (active)
- EC50 [4]: 2170 nM (active)
- EC50 [5]: 1720 nM (active)
- EC50 [6]: 226 nM (active)
- EC50 (H4): 8760 nM (active)

SMILES: COc1ccc(-c2ccccc2[C@@H]2[C@H](C#N)N(C(=O)C3CCCC3)[C@H]2CO)cc1
- AC50 [7]: 19100 nM (active)

SMILES: CCN1C(=S)SC(=O)C1=C1C=C(C)N(Cc2ccco2)C(C)=C1
- EC50 [8]: > 195000 nM (not active)
- EC50 [2]: 313 nM (active)
- EC50 [3]: 263 nM (active)
- EC50 [5]: 287 nM (active)
- EC50 (Vasopressin V1a receptor): 10500 nM (not active)
- EC50 (H4): < 100 nM (active)
- EC50 (Oxytocin receptor): 16700 nM (not active)

SMILES: Cc1ccc(S(=O)(=O)NC(=O)NN2CC3CCCC3C2)cc1 (stereo not drawn) [GLICLAZIDE]
- IC50 [9]: 1830 nM (active)
- IC50 [10]: > 10000 nM (inactive)
- IC50 (cells): > 33300 nM (inactive)
- IC50 [11]: > 10000 nM (inactive)

SMILES: O=C1c2c(O)ccc(O)c2C(=O)c2c(NCCNCCO)ccc(NCCNCCO)c21 [MITOXANTRONE HYDROCHLORIDE]
- IC50 [12]: 1030 nM (active)
- GI50 (P388/ADR): 22.2 nM (active)
- GI50 (SN12K1): 5.3 nM (active)
- IC50 [13]: 37900 nM (inactive)
- IC50 [14]: 1830 nM (active)
- IC50 [15]: 14800 nM (active)
- IC50 [16]: 1600 nM (active)
- IC50 [17]: 3850 nM (active)
- AC50 [18]: 33600 nM (active)
- GI50 (P388): 3.55 nM (active)
- IC50 [10]: > 10000 nM (inactive)
- IC50 [19]: 1230 nM (active)
- IC50 [11]: > 10000 nM (inactive)
- IC50 [20]: > 122000 nM (inactive)
- AC50 [21]: 658 nM (active)
- IC50 [22]: 1 nM (active)
- AC50 [23]: < 150 nM (active)
- CC50 [24]: < 80 nM (active)
- IC50 (Nonstructural protein 1): 1100 nM (active)
- AC50 (Paired box protein Pax-8): 690 nM (active)
- AC50 [25]: 535 nM (active)
- AC50 [26]: 9510 nM (active)
- IC50 [27]: 1720 nM (active)
